Test results as given in patent US10588317B2, “Isoxazoline-substituted benzamides and analogues as insecticides” (priority 2015, dated 2020).

Assays:
Format in all cases: in vivo
Tetranychus urticae = Tetranychus urticae (two-spotted spider mite): feeding/contact activity; details: 192 h, application rate 200 ppm, mixed population (mobile stages), 8 days after infestation, read-out: mortality
Protocol: Bean leaf discs on agar in 24-well microtiter plates were sprayed with aqueous test solutions prepared from 10'000 ppm DMSO stock solutions. After drying the leaf discs were infested with a mite population of mixed ages. The samples were assessed for mortality on mixed population (mobile stages) 8 days after infestation.

Thrips tabaci = Thrips tabaci (onion thrips): feeding/contact activity; details: 144 h, application rate 200 ppm, Thrips population of mixed ages, 6 days after infestation, read-out: mortality
Protocol: Sunflower leaf discs were placed on agar in 24-well microtiter plates and sprayed with aqueous test solutions prepared from 10'000 ppm DMSO stock solutions. After drying the leaf discs were infested with a Thrips population of mixed ages. The samples were assessed for mortality 6 days after infestation.

Diabrotica balteata = Diabrotica balteata (corn root worm), sprayed maize sprouts; details: 96 h, application rate 200 ppm, L2 larvae, 4 days after infestation, read-out: effect in at least one of the two categories (mortality or growth inhibition)
How it was run: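 Maize sprouts on agar sprayed with aqueous dilutions of DMSO stocks, dried, then infested with L2 larvae (6–10 per well). Mortality and growth inhibition scored against untreated controls 4 days after infestation, at 200 ppm application rate.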

Euschistus heros = Euschistus heros (neotropical brown stink bug), sprayed soybean leaves; details: 120 h, application rate 200 ppm, N2 nymphs, 5 days after infestation, read-out: effect in at least one of the two categories (mortality or growth inhibition)
How it was run: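 Soybean leaves on agar sprayed with aqueous dilutions of DMSO stocks, dried, then infested with N2 nymphs. Mortality and growth inhibition scored against untreated samples 5 days after infestation; application rate 200 ppm.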

Plutella xylostella = Plutella xylostella (diamond back moth), artificial diet; details: 120 h, application rate 200 ppm, L2 larvae, 5 days after infestation, read-out: effect in at least one of the two categories (mortality or growth inhibition)
How it was run: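 Artificial diet in 24-well plates treated with aqueous test solutions made from 10'000 ppm DMSO stocks, dried, then infested with L2 larvae (10 to 15 per well). Mortality and growth inhibition scored against untreated samples 5 days after infestation; activity cut-off at least 80% in either category at 200 ppm.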

Spodoptera littoralis [1] = test: Spodoptera littoralis (Egyptian cotton leaf worm), uptake by lettuce roots from agar; details: 144 h, read-out: effect in at least one of the three categories (mortality, anti-feeding, or growth inhibition)
How it was run: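 Compound from 10'000 ppm DMSO stocks was mixed into agar, and lettuce grew on it for 7 days to take it up via roots. Cut leaves were infested with Spodoptera eggs; mortality, anti-feedant effect and growth inhibition scored 6 days later versus untreated samples.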

Spodoptera littoralis [2] = test: Spodoptera littoralis (Egyptian cotton leaf worm), sprayed cotton leaf discs; details: foliar, 72 h, application rate 200 ppm, L1 larvae, 3 days after infestation, read-out: control (mortality, anti-feeding effect, growth inhibition)
How it was run: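 Cotton leaf discs on agar sprayed with aqueous test solutions made from 10'000 ppm DMSO stock; after drying, infested with five L1 larvae. Mortality, anti-feeding and growth inhibition scored versus untreated samples 3 days after infestation; control counted when any category exceeds untreated.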

Myzus persicae = Myzus persicae (green peach aphid): feeding/contact activity; details: 144 h, application rate 200 ppm, aphid population of mixed ages, 6 days after infestation, read-out: mortality
Protocol: Sunflower leaf discs were placed onto agar in a 24-well microtiter plate and sprayed with aqueous test solutions prepared from 10'000 ppm DMSO stock solutions. After drying, the leaf discs were infested with an aphid population of mixed ages. The samples were assessed for mortality 6 days after infestation.

Cc1cc(C2=NO[C@@](c3cc(Cl)c(F)c(Cl)c3)(C(F)(F)F)C2)ccc1C(=O)N[C@@H]1CON(S(C)(=O)=O)C1 (single isomer, unassigned) [Compound A12]
≥ 80%: mortality at 200 ppm (Tetranychus urticae) | mortality at 200 ppm (Thrips tabaci) | percent effect (mortality or growth inhibition) at 200 ppm (Diabrotica balteata) | percent effect (mortality or growth inhibition) at 200 ppm (Euschistus heros) | percent effect (mortality or growth inhibition) at 200 ppm (Plutella xylostella) | percent control (mortality, anti-feedant effect or growth inhibition) at 12.5 ppm (Spodoptera littoralis [1]) | mortality at 200 ppm (Spodoptera littoralis [2]) | mortality at 200 ppm (Myzus persicae)

CCN(C)S(=O)(=O)N1C[C@@H](NC(=O)c2ccc(C3=NO[C@@](c4cc(Cl)c(Cl)c(Cl)c4)(C(F)(F)F)C3)cc2C)CO1 [Compound A72, N-[(4R)-2-[ethyl(methyl)sulfamoyl]isoxazolidin-4-yl]-2-methyl-4-[(5S)-5-(3,4,5-trichlorophenyl)-5-(trifluoromethyl)-4H-isoxazol-3-yl]benzamide]
≥ 80%: mortality at 200 ppm (Tetranychus urticae) | mortality at 200 ppm (Thrips tabaci) | percent effect (mortality or growth inhibition) at 200 ppm (Diabrotica balteata) | percent effect (mortality or growth inhibition) at 200 ppm (Euschistus heros) | percent effect (mortality or growth inhibition) at 200 ppm (Plutella xylostella) | percent control (mortality, anti-feedant effect or growth inhibition) at 12.5 ppm (Spodoptera littoralis [1]) | mortality at 200 ppm (Spodoptera littoralis [2]) | mortality at 200 ppm (Myzus persicae)

Cc1cc(C2=NOC(c3ccc(Cl)c(Cl)c3)(C(F)(F)F)C2)ccc1C(=O)NC1CON(S(C)(=O)=O)C1 (stereo not drawn) [Compound A66]
≥ 80%: mortality at 200 ppm (Tetranychus urticae) | mortality at 200 ppm (Thrips tabaci) | percent effect (mortality or growth inhibition) at 200 ppm (Diabrotica balteata) | percent effect (mortality or growth inhibition) at 200 ppm (Euschistus heros) | percent effect (mortality or growth inhibition) at 200 ppm (Plutella xylostella) | percent effect (mortality, anti-feeding or growth inhibition) at 12.5 ppm (Spodoptera littoralis [1]; test rate 12.5 ppm, eggs, 6 days after infestation) | mortality at 200 ppm (Spodoptera littoralis [2]) | mortality at 200 ppm (Myzus persicae)

Cc1cc(C2=NOC(c3cc(Cl)c(Cl)c(Cl)c3)(C(F)(F)F)C2)ccc1C(=O)NC1CON(S(C)(=O)=O)C1 (stereo not drawn) [Compound A61]
≥ 80%: mortality at 200 ppm (Tetranychus urticae) | mortality at 200 ppm (Thrips tabaci) | percent effect (mortality or growth inhibition) at 200 ppm (Diabrotica balteata) | percent effect (mortality or growth inhibition) at 200 ppm (Euschistus heros) | percent effect (mortality or growth inhibition) at 200 ppm (Plutella xylostella) | percent control (mortality, anti-feedant effect or growth inhibition) at 12.5 ppm (Spodoptera littoralis [1]) | mortality at 200 ppm (Spodoptera littoralis [2]) | mortality at 200 ppm (Myzus persicae)

Cc1cc(C2=NO[C@@](c3cc(Cl)cc(C(F)(F)F)c3)(C(F)(F)F)C2)ccc1C(=O)N[C@H]1CON(S(=O)(=O)N(C)C)C1 [Compound A91]
≥ 80%: mortality at 200 ppm (Tetranychus urticae) | mortality at 200 ppm (Thrips tabaci) | percent effect (mortality or growth inhibition) at 200 ppm (Diabrotica balteata) | percent effect (mortality or growth inhibition) at 200 ppm (Euschistus heros) | percent effect (mortality or growth inhibition) at 200 ppm (Plutella xylostella) | percent control (mortality, anti-feedant effect or growth inhibition) at 12.5 ppm (Spodoptera littoralis [1]) | mortality at 200 ppm (Spodoptera littoralis [2]) | mortality at 200 ppm (Myzus persicae)

CCNS(=O)(=O)N1C[C@@H](NC(=O)c2ccc(C3=NO[C@@](c4cc(Cl)c(Cl)c(Cl)c4)(C(F)(F)F)C3)cc2Cl)CO1 [Compound A125, 2-chloro-N-[(4R)-2-(ethylsulfamoyl)isoxazolidin-4-yl]-4-[(5S)-5-(3,4,5-trichlorophenyl)-5-(trifluoromethyl)-4H-isoxazol-3-yl]benzamide]
≥ 80%: mortality at 200 ppm (Tetranychus urticae) | mortality at 200 ppm (Thrips tabaci) | percent effect (mortality or growth inhibition) at 200 ppm (Diabrotica balteata) | percent effect (mortality or growth inhibition) at 200 ppm (Euschistus heros) | percent effect (mortality or growth inhibition) at 200 ppm (Plutella xylostella) | percent control (mortality, anti-feedant effect or growth inhibition) at 12.5 ppm (Spodoptera littoralis [1]) | mortality at 200 ppm (Spodoptera littoralis [2]) | mortality at 200 ppm (Myzus persicae)

CCNS(=O)(=O)N1C[C@@H](NC(=O)c2ccc(C3=NO[C@@](c4cc(Cl)cc(C(F)(F)F)c4)(C(F)(F)F)C3)cc2C)CO1 [Compound A134]
≥ 80%: mortality at 200 ppm (Tetranychus urticae) | mortality at 200 ppm (Thrips tabaci) | percent effect (mortality or growth inhibition) at 200 ppm (Diabrotica balteata) | percent effect (mortality or growth inhibition) at 200 ppm (Euschistus heros) | percent effect (mortality or growth inhibition) at 200 ppm (Plutella xylostella) | percent control (mortality, anti-feedant effect or growth inhibition) at 12.5 ppm (Spodoptera littoralis [1]) | mortality at 200 ppm (Spodoptera littoralis [2]) | mortality at 200 ppm (Myzus persicae)

CCS(=O)(=O)N1CC(NC(=O)c2ccc(C3=NO[C@@](c4cc(Cl)c(F)c(Cl)c4)(C(F)(F)F)C3)cc2Br)CO1 (stereo partly drawn) [Compound A44, 2-bromo-4-[(5S)-5-(3,5-dichloro-4-fluoro-phenyl)-5-(trifluoromethyl)-4H-isoxazol-3-yl]-N-(2-ethylsulfonylisoxazolidin-4-yl)benzamide]
≥ 80%: mortality at 200 ppm (Tetranychus urticae) | mortality at 200 ppm (Thrips tabaci) | percent effect (mortality or growth inhibition) at 200 ppm (Diabrotica balteata) | percent effect (mortality or growth inhibition) at 200 ppm (Euschistus heros) | percent effect (mortality or growth inhibition) at 200 ppm (Plutella xylostella) | percent control (mortality, anti-feedant effect or growth inhibition) at 12.5 ppm (Spodoptera littoralis [1]) | mortality at 200 ppm (Spodoptera littoralis [2]) | mortality at 200 ppm (Myzus persicae)

Cc1cc(C2=NOC(c3cc(Cl)cc(C(F)(F)F)c3)(C(F)(F)F)C2)ccc1C(=O)NC1CON(S(C)(=O)=O)C1 (stereo not drawn) [Compound A62]
≥ 80%: mortality at 200 ppm (Tetranychus urticae) | mortality at 200 ppm (Thrips tabaci) | percent effect (mortality or growth inhibition) at 200 ppm (Diabrotica balteata) | percent effect (mortality or growth inhibition) at 200 ppm (Euschistus heros) | percent effect (mortality or growth inhibition) at 200 ppm (Plutella xylostella) | percent control (mortality, anti-feedant effect or growth inhibition) at 12.5 ppm (Spodoptera littoralis [1]) | mortality at 200 ppm (Spodoptera littoralis [2]) | mortality at 200 ppm (Myzus persicae)
